Results: publication PMC8078842 (PLoS Neglected Tropical Diseases, 2021)
Where two headings read alike, the source gives them in different places.

Assays:
[1] = previously published data; cited from earlier work
[2] = In vivo pharmacokinetic brain distribution with [^3H(G)]pentamidine; parameters: species or system BALB/c mice; settings: 2 hours post-injection i.v., corrected for vascular/[^14C]sucrose space
[3] = tested on: Calmodulin; settings: Inhibits nNO synthase in vitro; cited from earlier work
[4] = tested on: Glycine, Strychnine-sensitive; assay: CNS side effect panel, [^3H]Strychnine; format: binding; settings: pentamidine 1.0E^-5 M
[5] = tested on: Nitric Oxide, NOS (Neuronal-Binding); assay: CNS side effect panel, [^3H]NOARG; settings: pentamidine 1.0E^-5 M
[6] = tested on: Glutamate,NMDA,Glycine (Stry-insens Site) (Ionot); assay: CNS side effect panel, [^3H]-MDL-105,519; format: binding; settings: pentamidine 1.0E^-5 M
[7] = tested on: Adenosine, Non-selective; assay: CNS side effect panel, [^3H]NECA; format: binding; settings: pentamidine 1.0E^-5 M
[8] = human, in vivo; cited from earlier work
[9] = tested on: Delta2glutamate receptor; settings: Voltage independent; cited from earlier work
[10] = target: Muscarinic, Non-selective, Central; assay: CNS side effect panel, [^3H]QNB; format: binding
[11] = target: T1, Oxidase, MAO-A-Peripheral (Rattus norvegicus, UniProt P21396); assay: CNS side effect panel, [^14C] - 5HT; format: biochemical
T1 sequence (P21396 1-526): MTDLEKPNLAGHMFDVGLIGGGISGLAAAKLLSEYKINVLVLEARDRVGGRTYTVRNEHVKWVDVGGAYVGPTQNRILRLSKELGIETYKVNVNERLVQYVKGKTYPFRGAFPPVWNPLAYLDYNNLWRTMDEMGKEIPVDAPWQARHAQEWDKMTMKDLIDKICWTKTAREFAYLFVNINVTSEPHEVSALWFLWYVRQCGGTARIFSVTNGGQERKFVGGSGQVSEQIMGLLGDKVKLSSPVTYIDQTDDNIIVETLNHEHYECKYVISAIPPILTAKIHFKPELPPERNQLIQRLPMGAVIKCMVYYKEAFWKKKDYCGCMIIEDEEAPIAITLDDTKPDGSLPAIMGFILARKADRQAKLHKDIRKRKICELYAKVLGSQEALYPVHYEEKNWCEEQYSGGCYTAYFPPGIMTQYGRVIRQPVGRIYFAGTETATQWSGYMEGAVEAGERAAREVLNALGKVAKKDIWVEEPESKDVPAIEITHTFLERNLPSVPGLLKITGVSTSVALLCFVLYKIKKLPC

[12] = tested on: fibrinogen binding to GP11b/IIIa; settings: Inhibits fibrinogen binding to GP11b/IIIa; cited from earlier work
[13] = target: Oxidase, MAO-B, Peripheral (Rattus norvegicus, UniProt P19643); assay: CNS side effect panel, [^14C]Phenylethylamine; format: biochemical
[14] = tested on: GABA A, Agonist Site; assay: CNS side effect panel, [^3H]GABA; format: binding; settings: pentamidine 1.0E^-5 M
[15] = tested on: Serotonin, Non-selective; assay: CNS side effect panel, [^3H] LSD; format: binding; settings: pentamidine 1.0E^-5 M
[16] = tested on: GABA A, BDZ, alpha 1 site; assay: CNS side effect panel, [^3H]Flunitrazepam; format: binding; settings: pentamidine 1.0E^-5 M
[17] = target: T2, Endothelin, ET-B (h) (Homo sapiens, UniProt P24530); assay: CNS side effect panel, [^125I]-Endothelin-1; format: binding; settings: pentamidine 1.0E^-5 M
T2 construct: purchased Perkin-Elmer Science Discovery Systems (NovaScreen), customised CNS screening panel

[18] = tested on: Trypanosoma brucei gambience; settings: cited from earlier work
[19] = tested on: Acid sensing ion channels (ASIC); settings: Potency 1b>3>2a>or = 1a; cited from earlier work
[20] = tested on: Adrenergic, Alpha 2, Non-selective; assay: CNS side effect panel, [^3H]RX821002; format: binding; settings: pentamidine 1.0E^-5 M
[21] = tested on: Glutamate, AMPA Site (Ionotropic); assay: CNS side effect panel, [^3H]AMPA; format: binding; settings: pentamidine 1.0E^-5 M
[22] = tested on: Trypanosoma brucei blood stream form trypomastigotes (T. b. brucei strain S427); assay: Trypanocidal activity in vitro (Alamar Blue); format: cell-based
[23] = tested on: Serine proteases; settings: cited from earlier work
[24] = tested on: NMDA (Ionotropic) glutamate receptor; settings: Voltage dependent; cited from earlier work
[25] = tested on: Sigma, Non-selective; assay: CNS side effect panel, [^3H]DTG; format: binding; settings: pentamidine 1.0E^-5 M
[26] = Drug release from dialysis cells (Ritger-Peppas model); format: physicochemical; settings: 10 mM PTI ± 1% Pluronic, water, 37°C
Protocol: The tube was immersed in a 200 mL closed Duran flask which was placed in a water bath at 37°C for the duration of the experiment.
The data was fitted to Ritger-Peppas model.
Where M and M∞ are the cumulative amounts of drug released at time t and at infinite time, respectively; k, the reaction constant, t the time, n, the diffusional exponent describing the type of regime type: n = 1, case II transport, n = 0.5, Fickian diffusion, 0.5<n<1 non-Fickian diffusion.

[27] = target: T3, Opioid, Orphanin, ORL1 (h) (Homo sapiens, UniProt P41146); assay: CNS side effect panel, [^3H] Nociceptin; format: binding; settings: pentamidine 1.0E^-5 M
T3 construct: purchased Perkin-Elmer Science Discovery Systems (NovaScreen), customised CNS screening panel

[28] = tested on: Adrenergic, Beta, Non-selective; assay: CNS side effect panel, [^3H]DHA; format: binding; settings: pentamidine 1.0E^-5 M
[29] = tested on: Cholecystokinin, CCK2 (CCKB); assay: CNS side effect panel, [^125I]CCK-8; format: binding; settings: pentamidine 1.0E^-5 M
[30] = tested on: PRL phosphatases; settings: Oncology target; cited from earlier work
[31] = read-out: % of bsf trypomastigotes inhibited

Chain of Oxidase, MAO-B, Peripheral (P19643 whole entry): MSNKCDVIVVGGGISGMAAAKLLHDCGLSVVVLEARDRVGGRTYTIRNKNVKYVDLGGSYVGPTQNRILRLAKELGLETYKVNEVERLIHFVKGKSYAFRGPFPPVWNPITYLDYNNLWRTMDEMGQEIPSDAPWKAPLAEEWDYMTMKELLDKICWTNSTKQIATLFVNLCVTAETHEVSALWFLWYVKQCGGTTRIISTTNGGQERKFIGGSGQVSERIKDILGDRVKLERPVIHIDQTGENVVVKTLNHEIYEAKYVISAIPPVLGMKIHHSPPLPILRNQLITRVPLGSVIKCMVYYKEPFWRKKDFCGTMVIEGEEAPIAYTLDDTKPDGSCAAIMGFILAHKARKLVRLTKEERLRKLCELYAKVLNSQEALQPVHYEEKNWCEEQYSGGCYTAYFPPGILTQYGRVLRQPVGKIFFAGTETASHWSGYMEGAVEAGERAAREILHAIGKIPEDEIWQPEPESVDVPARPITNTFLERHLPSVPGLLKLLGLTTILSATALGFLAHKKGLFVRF
T2 sequence (P24530 27-442): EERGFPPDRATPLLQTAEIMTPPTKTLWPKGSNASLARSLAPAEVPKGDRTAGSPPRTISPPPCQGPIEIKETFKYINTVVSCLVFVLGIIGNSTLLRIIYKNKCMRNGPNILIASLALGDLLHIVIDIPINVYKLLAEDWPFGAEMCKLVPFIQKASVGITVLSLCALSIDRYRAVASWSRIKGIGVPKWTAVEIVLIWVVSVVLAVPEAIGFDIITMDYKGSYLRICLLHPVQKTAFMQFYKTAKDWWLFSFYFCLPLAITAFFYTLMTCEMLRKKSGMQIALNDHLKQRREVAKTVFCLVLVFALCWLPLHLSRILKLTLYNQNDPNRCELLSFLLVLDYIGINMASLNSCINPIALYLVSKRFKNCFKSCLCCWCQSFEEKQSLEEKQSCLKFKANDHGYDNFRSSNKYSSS
T3 sequence (P41146 whole entry): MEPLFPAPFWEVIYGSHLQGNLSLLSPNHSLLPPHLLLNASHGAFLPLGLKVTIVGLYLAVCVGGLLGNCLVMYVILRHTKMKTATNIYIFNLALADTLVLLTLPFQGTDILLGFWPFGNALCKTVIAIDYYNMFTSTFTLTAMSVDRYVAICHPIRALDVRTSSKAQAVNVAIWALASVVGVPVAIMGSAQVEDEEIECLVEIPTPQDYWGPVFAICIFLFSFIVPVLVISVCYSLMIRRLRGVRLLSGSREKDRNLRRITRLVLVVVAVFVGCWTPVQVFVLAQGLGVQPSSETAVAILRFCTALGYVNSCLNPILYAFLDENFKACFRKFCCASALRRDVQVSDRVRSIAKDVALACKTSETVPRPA

Molecule: [^3H(G)]pentamidine
- Accumulation corrected for vascular space, hippocampus [1]: 4.3%
- Accumulation corrected for vascular space, hypothalamus [1]: 7.6%
- Accumulation corrected for vascular space, pons [1]: 8.2%
- RTISSUE/PLASMA% (mean±SEM) Cerebellum [2]: 204.02 (± 35.28) %
- RTISSUE/PLASMA% (mean±SEM) Choroid plexus [2]: 24666.66 (± 4928) %
- RTISSUE/PLASMA% (mean±SEM) Homogenate [2]: 249.41 (± 35.59) %
- RTISSUE/PLASMA% (mean±SEM) Left brain [2]: 152.29 (± 33.48) %
- RTISSUE/PLASMA% (mean±SEM) Midbrain [2]: 181.18 (± 45.30) %
- RTISSUE/PLASMA% (mean±SEM) Pellet [2]: 479.72 (± 72.50) %
- RTISSUE/PLASMA% (mean±SEM) Pituitary gland [2]: 15053.41 (± 3598) %
- RTISSUE/PLASMA% (mean±SEM) Right brain [2]: 115.52 (± 12.46) %
- RTISSUE/PLASMA% (mean±SEM) Supernatant [2]: 123.35 (± 28.45) %

Molecule: N=C(N)c1ccc(OCCCCCOc2ccc(C(=N)N)cc2)cc1 [Pentamidine, 1,5-bis-4ρ-amidinophenoxypentane]
- Affinity [3]: 30 µM
- Percent Inhibition [4]: -0.22%
- Percent Inhibition [5]: 12.98%
- Percent Inhibition [6]: -17.52%
- Percent Inhibition [7]: 1.28%
- incidence of diabetes mellitus [8]: occasional but irreversible
- incidence of hypoglycaemia [8]: 5-40%
- Affinity [9]: 5 µM
- Ki ([10]; Muscarinic (central), concentration-response): 281 nM
- Percent Inhibition ([10]; pentamidine 1.0E^-5 M): 90.90%
- Ki ([11]; Monoamine oxidase A, concentration-response): 217 nM
- Percent Inhibition ([11]; pentamidine 1.0E^-5 M): 89.42%
- Affinity [12]: 1.1 µM
- Ki ([13]; Monoamine oxidase B, concentration-response): 181 nM
- Percent Inhibition ([13]; pentamidine 1.0E^-5 M): 99.99%
- Percent Inhibition [14]: 31.10%
- Percent Inhibition [15]: 0.09%
- Percent Inhibition [16]: 20.54%
- Percent Inhibition [17]: 4.50%
- Affinity, Trypanocidal ([18]; Time-dependent): 0.01 µM
- trypanocidal activity in vitro [18]: around 10 nM
- IC50 ([18]; comparator for relative selectivity, read-out: Trypanocidal Activity (IC50), printed in column Ki): 10 nM
- IC50 ([18]; read-out: IC50): 14.7 ± 4.7 nM
- Affinity [19]: 38 µM
- Percent Inhibition [20]: 56.14%
- Percent Inhibition [21]: 1.34%
- inhibition at 5.7 pM [22, 31]: 4.1%
- inhibition at 17 pM [22, 31]: 35%
- inhibition at 51 pM [22, 31]: 65.3%
- inhibition at 0.3 µM [22, 31]: 97.4%
- inhibition at 1 µM [22, 31]: 98.3%
- IC50 ([22]; read-out: IC50 (± 95% CI) of pentamidine): 0.0211 nM
- Affinity [23]: 4000 µM
- Affinity [24]: 0.2 µM
- Percent Inhibition [25]: 6.50%
- reaction constant (k, Ritger-Peppas) [26]: ~0.3
- reaction type (diffusional exponent n, Ritger-Peppas) [26]: ca. 0.5
- Percent Inhibition [27]: 36.62%
- Percent Inhibition [28]: 55.37%
- Percent Inhibition [29]: 0.09%
- Affinity [30]: 3 µM
